Laboratory results reported in patent US12617767B2, “Crystalline forms of somatostatin modulators” (Crinetics Pharmaceuticals, Inc., priority 2019, dated 2026).
In brackets after ≈: the same amount, converted by molar mass. Like-named read-outs stand apart in the source and are kept apart here.

How the values were obtained:
Assay type in all cases: physicochemical
[1] = Equilibrium solubility in simulated fluids and water at 37° C.; settings: for solubility at 24 h: above calibration range
Experimental: The solubility Compound A⋅2MSA, Patterns A, B and I, was measured in water, fasted state simulated gastric fluid (FaSSGF) and fasted state simulated intestinal fluid (FaSSIF) at 37° C. by slurrying in the respective media for 24 hours. 1.5 mL of the fluid was stirred at 37° C. About 5 mg of the specified solid was added to FaSSIF and a thin slurry was immediately formed. As a test, approximately 80 and 60 mg of Pattern A was added to 1.5 mL of water and FaSSGF, respectively without formation of a slurry. Therefore, about 10 mg of the desired Pattern was added to water and FaSSGF solutions. The samples were allowed to stir at 37° C. for 24 hrs. The stir bars were removed from the FaSSIF vials and the solids allowed to settle for 0.5 hours at 37° C. The supernatant/solutions were syringe filtered and recovered for analysis by HPLC as well as for pH measurement.

[2] = Karl-Fischer titration for water determination
Experimental: Karl-Fischer titration for water determination was done using a Mettler Toledo C20S Coulometric KF Titrator equipped with a current generator cell with a diaphragm, and a doubleplatinum-pin electrode. Aquastar™ CombiCoulomat fritless reagent was used in both the anode and cathode compartments. Samples of approximately 0.03-0.10 g were dissolved in the anode compartment and titrated until the solution potential dropped below 100 mV. Hydranal 1 wt. % water standard is used for validation prior to sample analysis.

[3] = Humidity stress tests (XRPD, HPLC purity); settings: 40° C./75% RH/7 days
Experimental: Pattern A was heated to 277° C., monitored by DSC. […] This material was exposed to ˜90% RH at room temperature and slurried in ACN and after 4 hours the Patterns B and I were recovered, respectively.
About 15 mg of Compound A⋅2MSA (Pattern A) was loaded into a 4 mL vial and the opening was covered with a Kimwipe. This was placed in a 20 mL vial with saturated aqueous K2SO4 and sealed to provide an environment of 94-96% Relative Humidity (RH) at room temperature (RT).
About 10 mg of Compound A⋅2MSA Pattern A and Pattern B were loaded into separate 4 mL vials. These were placed in 20 mL vials with saturated aqueous NaCl and sealed to provide an environment of 75% RH at 40° C. […] The same 1 week study was done with Pattern C (+I) and Pattern I, both remained stable by XRPD.

[4] = Dynamic Vapor Sorption (DVS)
Experimental: Dynamic Vapor Sorption (DVS) was done using a DVS Intrinsic 1. The sample is loaded into a sample pan and suspended from a microbalance. A typical sample mass for DVS measurement is 25 mg. Nitrogen gas bubbled through distilled water provides the desired relative humidity.
A typical measurement comprises the steps: • 1—Equilibrate at 50% RH • 2-50% to 2%. (50%, 40%, 30%, 20%, 10% and 2%) • a. Hold minimum of 5 mins and maximum of 240 minutes at each humidity. The pass criteria is less than 0.002% change • 3-2% to 95% (2%, 10%, 20%, 30%, 40%, 50%, 60%, 70%, 80%, 90%, 95%) • a. Hold minimum of 5 mins and maximum of 240 minutes at each humidity. The pass criteria is less than 0.002% change • 4-95% to 2% (95%, 80%, 70%, 60%, 50%, 40%, 30%, 20%, 10%, 2%) • a. Hold minimum of 5 mins and maximum of 240 minutes at each humidity. The pass criteria is less than 0.002% change • 5-2% to 50% (2%, 10%, 20%, 30%, 40%, 50%) • a. Hold minimum of 5 mins and maximum of 240 minutes at each humidity. The pass criteria is less than 0.002% change Dynamic Vapor Sorption Isotherm Plots of Solid Forms of Compound A⋅2MSA

[5] = Stability of XRPD pattern on drying; settings: solids from short term slurries; vacuum oven at 50° C., minimum of 4 hours; dimesylate
Experimental: Short term slurries were carried out at two temperatures in 14 solvents. About 25 mg solid was added to a 2 mL vial followed by 0.70 mL of solvent. If all solids dissolved, more solid was added until a slurry was formed within reason. Slurries were stirred at constant temperature for four days (ambient temperature, 21-23° C.; or high temperature, 50° C.). After stirring for four days, solids were allowed to settle and were then recovered for XRPD analysis. XRPD analysis was performed on the wet cake, and if a new pattern was observed, the sample was dried in a vacuum oven at 50° C. for a minimum of 4 hours, then the dried sample was analyzed by XRPD.
Stability on Drying: A sample of Pattern B was prepared on an XRPD sample holder and analysed by XRPD to create a baseline. The disk was then left in a vacuum oven at 50° C. under static vacuum for 3 days. On the third day, the sample was removed from the oven and the “dry” pattern was recorded immediately.
(§1) Compound A⋅2MSA (Pattern A) was slurried in EtOH overnight at room temperature (ca. 16 hours). […] The bulk was dried in a vacuum oven at 50° C. under dynamic vacuum for 4.5 hours. The dried solids were removed from the oven and a “dry” XRPD analysis was collected.

[6] = Storage at ambient conditions (XRPD); settings: bulk, 6 days at ambient conditions; dimesylate
Experimental: Characterization after storage under ambient conditions: Pattern B was left at ambient conditions (21-22° C., 10-40% RH) for a week then characterized by)(RFD, TGA/DSC, and water content measured by Karl-Fischer titration. […] The water content was confirmed by KF titration which yielded a value of 4.20 wt. %.
Compound A⋅2MSA (Pattern A, 0.2622 g) was added to a 20 mL vial with a stir bar. Fifteen volumes (3.93 mL) of EtOH was added and the slurry was stirred overnight (˜20 hours). The slurry was sampled to confirm the correct pattern was generated, then the solids were collected by filtration. The resultant yellow solid was dried in a vacuum oven at 50° C. under dynamic vacuum for 2 hours, then under static vacuum overnight (˜16 hours) to yield 0.2015 g (77% yield). The in-situ sample drawn was dried for 3 hours then the solid was used for characterization by solution ^1H-NMR spectroscopy and simultaneous TGA/DSC. The bulk was dried overnight and used for stand-alone DSC, and thermal treatment.
as §1
Compound A⋅2MSA (Pattern A, 0.2659 g) was added to a 20 mL vial with a stir bar. Twenty-five volumes (6.65 mL) of ACN was added and the slurry was stirred overnight (˜20 hours). The slurry was sampled to confirm the correct pattern was generated, then the solids were collected by filtration. The resultant yellow solid was dried in a vacuum oven at 50° C. under dynamic vacuum for 2 hours, then under static vacuum overnight (˜16 hours) to yield 0.2255 g (85% yield). The sample drawn was dried for 3 hours then the solid was used for characterization by solution ^1H-NMR spectroscopy and simultaneous TGA/DSC. The bulk was dried overnight and used for stand-alone DSC.

[7] = Slurries of amorphous material (dissolution at room temperature); settings: room temperature (20-23° C.)
Experimental: About 22 mg of amorphous material was dispensed into vials and 0.5 mL (ca. 23 volumes) of the chosen solvent was added, and the mixture was stirred at room temperature (20-23° C.). A solution was formed in water and water saturated MeOAc. Additional solid was added to these solutions, but when a solution remained after roughly doubling the original solid quantity (ca. 90 mg/mL), further addition was ceased. All the other samples remained as slurries. After slurrying for 4 hours, an aliquot was taken for XRPD analysis of the slurry solids from all the samples except the water and water saturated MeOAc samples as they remained solutions. The mixtures continued to stir at room temperature overnight then the remaining slurry solids were collected (total slurry time of about 24 hours).

Q: Which results are given for `N#Cc1cccc(-c2ccc3ncc(-c4cc(F)cc(F)c4)c(N4CCC(N)CC4)c3c2)c1O` [Compound A, 3-(4-(4-aminopiperidin-1-yl)-3-(3,5-difluorophenyl)quinolin-6-yl)-2-hydroxybenzonitrile]?
A: pH (24 hr) ([1]; FaSSGF (pH 1.70)): 1.82; comments ([1]; FaSSGF (pH 1.70), 24 hrs): dissolved; solubility at 24 h ([1]; FaSSGF, 37 °C, pH 1.7, fassgf or other biorelevant, thermodynamic from solid, FaSSGF (pH 1.70), 24 hrs, mg of Compound A (free base), read-out: Concentration): > 10300 µg/mL; pH (24 hr) ([1]; FaSSIF (pH 6.48)): 6.11; comments ([1]; FaSSIF (pH 6.48), 24 hrs): disproportionated; solubility thermodynamic at 24 h ([1]; FaSSIF, 37 °C, pH 6.48, fassif, thermodynamic from solid, FaSSIF (pH 6.48), 24 hrs, mg of Compound A (free base), read-out: Concentration): 9 µg/mL (≈ 0.0197 mM); pH (24 hr) ([1]; water): 2.71; solubility at 24 h ([1]; water, 37 °C, water, thermodynamic from solid, water, 24 hrs, mg of Compound A (free base), read-out: Concentration): > 9770 µg/mL; comments ([1]; water, 24 hrs): dissolved; Water Content [2]: 1.5% w/w

Q: For `CS(=O)(=O)O.CS(=O)(=O)O.N#Cc1cccc(-c2ccc3ncc(-c4cc(F)cc(F)c4)c(N4CCC(N)CC4)c3c2)c1O` [C + I, 3-(4-(4-aminopiperidin-1-yl)-3-(3,5-difluorophenyl)quinolin-6-yl)-2-hydroxybenzonitrile dimesylate], which “Output XRPD” value [3] is on record?
A: C + I

Q: Which results are given for `CS(=O)(=O)O.CS(=O)(=O)O.N#Cc1cccc(-c2ccc3ncc(-c4cc(F)cc(F)c4)c(N4CCC(N)CC4)c3c2)c1O` [Pattern I, 3-(4-(4-aminopiperidin-1-yl)-3-(3,5-difluorophenyl)quinolin-6-yl)-2-hydroxybenzonitrile dimesylate]?
A: XRPD form after the DVS experiment ([4]; 2-95% RH, dimesylate): converted to Pattern B; reversible water uptake (DVS) ([4]; between 2% and 95% Relative Humidity (RH), dimesylate): 9.1 % w/w; water uptake (DVS) ([4]; between 15 and 75% RH): 2.5 % w/w; total mass difference on the desorption segment (DVS) ([4]; over the 2-95% RH range): 4.6%; total mass difference on the sorption segment (DVS) ([4]; over the 2-95% RH range): 9.1%; mass change (DVS) ([4]; range of 15-75% RH): 2.5 wt. %; Water Content ([2]; dimesylate): 0.29% w/w; XRPD pattern upon drying [5]: stable upon drying; XRPD pattern after storage at ambient conditions [6]: a pattern with additional peaks

Q: For `CS(=O)(=O)O.CS(=O)(=O)O.N#Cc1cccc(-c2ccc3ncc(-c4cc(F)cc(F)c4)c(N4CCC(N)CC4)c3c2)c1O` [Amorphous Compound A⋅2MSA, 3-(4-(4-aminopiperidin-1-yl)-3-(3,5-difluorophenyl)quinolin-6-yl)-2-hydroxybenzonitrile dimesylate], which “concentration at which a solution remained” value ([7]; water saturated MeOAc) is on record?
A: > 90000 µg/mL

Q: And the “concentration at which a solution remained” value ([7]; water)?
A: > 90000 µg/mL
